Converted amounts (≈) assume the structure as drawn.
What was measured:
[1] = tested on: Pseudomonas aeruginosa Stamm 1; assay: Minimum inhibitory concentration in vitro; format: cell-based; settings: STAMM1, ß-Lactamase bildende Stämme
Source text: (§1) Zum Nachweis der antimikrobiellen Wirksamkeit der erwähnten Produkte wurde das (6R,7R)-7-[2-(2-Amino-5-thiazolyl)-2-[(Z)-methoxyimino]acetamido]-3-[[(2,5-dihydro-2-methyl-5-oxo-as-triazin-3-yl)thio]methyl]-8-oxo-5-thia-1-azabicyclo[4.2.0]oct-2-en-2-carbonsäure-Natriumsalz auf seine Aktivität in vitro gegen verschiedene Krankheitserreger getestet. Nachstehend sind die entsprechenden Mindesthemmkonzentrationen (MIC; µg/ml) zusammengestellt: […]

Proteus vulgaris = assay: Minimum inhibitory concentration in vitro; format: cell-based; settings: ß-Lactamase bildende Stämme
Source text: as §1

Escherichia coli = assay: Minimum inhibitory concentration in vitro; format: cell-based; settings: ß-Lactamase bildende Stämme
Source text: as §1

Proteus mirabilis = assay: Minimum inhibitory concentration in vitro; format: cell-based; settings: ß-Lactamase bildende Stämme
Source text: as §1

[2] = tested on: Pseudomonas aeruginosa Stamm 2; assay: Minimum inhibitory concentration in vitro; format: cell-based; settings: STAMM2, ß-Lactamase bildende Stämme
Source text: as §1

Serratia marcescens = assay: Minimum inhibitory concentration in vitro; format: cell-based; settings: ß-Lactamase bildende Stämme
Source text: as §1

Neisseria gonorrhoeae = assay: Minimum inhibitory concentration in vitro; format: cell-based
Source text: as §1

Enterobacter cloacae = assay: Minimum inhibitory concentration in vitro; format: cell-based; settings: ß-Lactamase bildende Stämme
Source text: as §1

Haemophilus influenzae = assay: Minimum inhibitory concentration in vitro; format: cell-based
Source text: as §1

Staphylococcus aureus = assay: Minimum inhibitory concentration in vitro; format: cell-based
Source text: as §1

Toxicity (lethal dose) = format: in vivo

Compound `CO/N=C(\C(=O)N[C@@H]1C(=O)N2C(C(=O)O)=C(CSc3nc(=O)cnn3C)CS[C@H]12)c1csc(N)n1` [(6R,7R)-7-[2-(2-Amino-4-thiazolyl)-2-[(Z)-methoxyimino]ace-tamido]-3-[[(2,5-dihydro-2-methyl-5-oxo-as-triazin-3-yl)thio]methyl]-8-oxo-5-thia-1-azabicyclo[4.2.0]oct-2-en-2-carbonsäure-Natriumsalz] has an MIC [1] of 40 µg/mL (≈ 74.3 µM), an MIC (Proteus vulgaris) of 0.02 µg/mL (≈ 0.0371 µM) and an MIC (Escherichia coli) of 0.04 µg/mL (≈ 0.0743 µM). It also gave an MIC (Proteus mirabilis) of 0.04 µg/mL (≈ 0.0743 µM), an MIC [2] of 40 µg/mL (≈ 74.3 µM) and an MIC (Serratia marcescens) of 0.16 µg/mL (≈ 0.297 µM). It also gave an MIC (Neisseria gonorrhoeae) of 0.02 µg/mL (≈ 0.0371 µM), an MIC (Enterobacter cloacae) of 2.5 µg/mL (≈ 4.64 µM) and an MIC (Haemophilus influenzae) of 0.02 µg/mL (≈ 0.0371 µM). It also gave an MIC (Staphylococcus aureus) of 2.5 µg/mL (≈ 4.64 µM), an LD100 (Toxicity (lethal dose); i.v.) of 1000 mg/kg and an LD100 (Toxicity (lethal dose); p.o.) greater than 5000 mg/kg. The LD100 (Toxicity (lethal dose); s.c.) was greater than 5000 mg/kg.
